Data on four molecules can be found in US20220110917A1 (priority 2018, published 2022).

For data set [1] the following is noted: in vivo; cited from earlier work.
For data set [2] the following is noted: in vivo, po.
For data set [3] the following is noted: human, in vivo, po.
For data set [4] the following is noted: oral administration in suspension; cited from earlier work.

`CC(=O)[C@H]1CC[C@H]2[C@@H]3CC[C@H]4C[C@H](O)CC[C@]4(C)[C@H]3CC[C@]12C` [allopregnanolone, 3α, 5α-tetrahydroprogesterone]: the half-life entry in data set [1] was “about 35 minutes”.
Turning to `CCN(CC)CCN1C(=O)CN=C(c2ccccc2F)c2cc(Cl)ccc21` [Flurazepam], in data set [2], the “residual effect on Choice Reaction Time” value is “showed significant effect” and the “residual effect on Critical Flicker Fusion” value was “showed significant effect”.
For the molecule `Oc1noc2c1CCNC2` [gaboxadol, 4,5,6,7-tetrahydroisoxazolo [5,4-c] pyridine-3-ol], in data set [3], the “AUC0-∞ Slope (90% CI), dose proportionality” value is recorded as 0.98 (0.95, 1.01) and the “Cmax Slope (90% CI), dose proportionality” value is 0.95 (0.88, 1.02). Also, in data set [2], the “residual effect on Choice Reaction Time” value is given as “did not show residual effect”, the “residual effect on Critical Flicker Fusion” value is listed as “did not show residual effect”, the “residual effects on Body Sway” value is recorded as “did not show any signs of residual effects” and the “residual effects on Digit symbol substitution test (DSST)” value was “did not show any signs of residual effects”. For the same molecule, in data set [2], the “residual effects on Leeds Sleep Evaluation Questionnaire” value is “did not show any signs of residual effects”, the “residual effects on Memory tests” value is reported as “did not show any signs of residual effects”, the “residual effects on Multiple Sleep Latency Test (MSLT)” value is “did not show any signs of residual effects” and the “residual effects on Tracking” value is “did not show any signs of residual effects”.
For orientation: Tmax means the time from dosing to the highest level. Consider `CC(=O)[C@H]1CC[C@H]2[C@@H]3CC[C@H]4C[C@](C)(O)CC[C@]4(C)[C@H]3CC[C@]12C` [ganaxolone], for which, in data set [4], the Tmax is 1.2 to 2.5 h and the plasma half-life result was “approximately 20 h”.
